From US20240254129A1, “HETEROCYCLIC COMPOUNDS AND USES THEREOF” (Kumquat Biosciences Inc., priority 2021, published 2024)

How the values were obtained:
wildtype K-Ras = target: T1, wildtype K-Ras (Homo sapiens, UniProt P01116); test: Nucleotide exchange assay (SOS1, BODIPY FL GDP), wildtype K-Ras; type: biochemical; details: compound marked *: general methodology of example 7 (nucleotide exchange); read-out: IC50 against wildtype Kras
T1 construct: GST (N); made in house; host or cells: E. coli BL21 (DE3)
T1 sequence (P01116 1-188 isoform P01116-2): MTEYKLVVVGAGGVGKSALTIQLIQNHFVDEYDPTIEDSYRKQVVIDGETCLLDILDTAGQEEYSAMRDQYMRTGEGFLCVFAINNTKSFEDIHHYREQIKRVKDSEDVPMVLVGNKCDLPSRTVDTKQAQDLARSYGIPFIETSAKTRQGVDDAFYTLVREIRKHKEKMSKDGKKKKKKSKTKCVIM
Protocol: (§1) This assay can be also used to assess a selective inhibition of a mutant Ras protein relative to a wildtype, or relative to a different mutant Ras protein. For example, 250 nM or 500 nM GDP-loaded K-Ras proteins (e.g., wildtype or a mutant thereof including those mentioned in Example 6), each was incubated with different concentrations of compounds (for example ˜60 μM, ˜20 μM, ˜6.7 μM, ˜2.2 μM, ˜0.7 µM, ˜0.2 μM subject compound). A control reaction without subject compound was also included. SOS1 (catalytic domain) protein was added to the K-Ras protein solution. The nucleotide exchange reaction was initiated by adding fluorescent labelled GDP (Guanosine 5′-Diphosphate, BODIPY™ FL 2′-(or-3′)—O—(N-(2-Aminoethyl) Urethane) to a final concentration of 0.36 μM. Fluorescence was measured every 30 s for 70 minutes at 490 nm/515 nm (excitation/emission) in a M1000Pro plate reader (Tecan). Data is exported and analyzed to calculate an IC50 using GraphPad Prism (GraphPad Software). Sample(s) was tested with or without a subject compound disclosed herein including compound(s) exemplified in Table 1 to assess compound's ability to inhibit K-Ras signaling or its IC50 against a given Ras protein (e.g., a given mutant K-Ras) of interest.

K-Ras G12D mutant = target: T2, K-Ras G12D mutant (Homo sapiens, UniProt P01116, G12D); test: Nucleotide exchange assay (SOS1, BODIPY FL GDP), mutant K-Ras; type: biochemical; details: compound marked *: general methodology of example 7 (nucleotide exchange); read-out: IC50 against mutant Kras
T2 construct: GST (N); made in house; host or cells: E. coli BL21 (DE3)
T2 sequence (P01116 1-188 isoform P01116-2 G12D): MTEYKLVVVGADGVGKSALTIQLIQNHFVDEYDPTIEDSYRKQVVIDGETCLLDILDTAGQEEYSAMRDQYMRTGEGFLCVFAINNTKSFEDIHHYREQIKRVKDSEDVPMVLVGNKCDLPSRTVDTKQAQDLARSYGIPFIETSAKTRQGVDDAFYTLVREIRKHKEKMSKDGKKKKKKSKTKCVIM
Protocol: as §1

wildtype Kras / hSOS1 = target: T3, wildtype Kras / hSOS1 (Homo sapiens, UniProt P01116); test: HTRF assay, wildtype Kras / SOS1 interaction; type: binding; details: compound nos. 401-703; read-out: IC50 against wildtype Kras
T3 construct: made in house; host or cells: E. coli BL21 (DE3)
T3 sequence (P01116 1-188 isoform P01116-2): as the sequence (P01116 1-188 isoform P01116-2) above
Summary of the method: (§2)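 Tagged proteins: GST-K-Ras (wt or mutant), His-hSOS1; labels anti-GST-Eu/anti-6His-XL665; HEPES pH 7.4 buffer with DTT, BSA, Igepal. Read ≥10 min post-mix at ex 337 nm; IC50 from ratiometric data, duplicates.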

[1] = target: GST-tagged K-Ras mutant / His-tagged hSOS1 (Homo sapiens, UniProt P01116); test: HTRF assay, K-Ras mutant / SOS1 interaction; type: binding; details: compound nos. 401-703; read-out: IC50 against mutant Kras
Chain of GST-tagged K-Ras mutant / His-tagged hSOS1 (P01116 whole entry G12D, form open): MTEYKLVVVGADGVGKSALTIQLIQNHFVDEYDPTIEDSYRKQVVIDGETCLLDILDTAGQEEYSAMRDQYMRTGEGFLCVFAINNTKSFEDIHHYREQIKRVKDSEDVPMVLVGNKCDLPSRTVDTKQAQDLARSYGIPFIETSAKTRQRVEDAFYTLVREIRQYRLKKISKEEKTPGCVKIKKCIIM
Summary of the method: as §2

Row | SMILES | IC50 (wildtype K-Ras) [µM] | IC50 (K-Ras G12D mutant) [µM] | IC50 (wildtype Kras / hSOS1) [µM] | IC50 [1] [µM]
1 | CN1CCC[C@H]1COc1nc(N2CCCNCC2)c2cc(Cl)c(-c3cccc4sc(N)nc34)c(F)c2n1 [Compound 101, 4-(6-chloro-4-(1,4-diazepan-1-yl)-8-fluoro-2-(((S)-1-methylpyrrolidin-2-yl)methoxy)quinazolin-7-yl)benzo[d]thiazol-2-amine] | > 0.5 | < 0.5 |  | 
2 | CN(C)CC1(COc2nc(N3CC4CCC(C3)N4)c3cc(Cl)c(-c4cccc5oc(N)nc45)c(F)c3n2)CC1 [Compound 692, 4-(4-(3,8-diazabicyclo-[3.2.1]-octan-3-yl)-6-chloro-2-((1-((dimethylamino)-methyl)cyclopropyl)meth-oxy)-8-fluoroquinazolin-7-yl)benzo[d]oxazol-2-amine] |  |  | > 0.5 | < 0.5
3 | O=C(c1cc(O)cc2ccccc12)N1CCc2nc(OCC34CCCN3CCC4)nc(N3CC4CCC(C3)N4)c2CC1 [Compound 694, (4-(3,8-diazabicyclo[3.2.1]-octan-3-yl)-2-((tetrahydro-1H-pyrrolizin-7a(5H)-yl)-methoxy)-5,6,8,9-tetrahydro-7H-pyrimido[4,5-d]azepin-7-yl)(3-hydroxynaphthalen-1-yl)methanone] |  |  | > 0.5 | > 0.5
4 | Nc1c(-c2c(Cl)cc3c(N4CC5CCC(C4)N5)nc(OCC45CCCN4CCC5)nc3c2F)cccc1C1CC1 [Compound 695, 2-(4-(3,8-diazabicyclo-[3.2.1]octan-3-yl)-6-chloro-8-fluoro-2-((tetrahydro-1H-pyrrolizin-7a(5H)-yl)meth-oxy)quinazolin-7-yl)-6-cyclopropylaniline] |  |  | > 0.5 | > 0.5

Now from value to compound:

Row | IC50 (wildtype K-Ras) [µM] | IC50 (K-Ras G12D mutant) [µM] | IC50 (wildtype Kras / hSOS1) [µM] | IC50 [1] [µM] | SMILES
5 |  |  | > 0.5 | > 0.5 | CN1CCCC1CCNc1nc(N2CC3CCC(C2)N3)c2ccc(-c3ccc(F)c4sc(N)nc34)nc2n1 (stereo not shown) [Compound 697, 4-(4-(3,8-diazabicyclo-[3.2.1]octan-3-yl)-2-((2-(1-methylpyrrolidin-2-yl)-ethyl)amino)pyrido[2,3-d]-pyrimidin-7-yl)-7-fluoro-benzo[d]thiazol-2-amine]
6 |  |  | > 0.5 | < 0.5 | CN1CCC[C@H]1COc1nc(N2CCCCC(C(N)=O)C2)c2cc(Cl)c(-c3cccc4sc(N)nc34)c(F)c2n1 (stereo partly drawn) [Compound 700, 1-(7-(2-aminobenzo[d]-thiazol-4-yl)-6-chloro-8-fluoro-2-(((S)-1-methyl-pyrrolidin-2-yl)methoxy)-quinazolin-4-yl)azepane-3-carboxamide]
7 |  |  | > 0.5 | < 0.5 | CN(C)CC1(COc2nc(N3C[C@H]4CC[C@@H](C3)N4)c3cc(Cl)c(-c4cc(O)cc5ccccc45)c(F)c3n2)CC1 [Compound 701, 4-(4-((1R,5S)-3,8-diazabicyclo[3.2.1]octan-3-yl)-6-chloro-2-((1-((dimethylamino)methyl)cyclopropyl)methoxy)-8-fluoroquinazolin-7-yl)naphthalen-2-ol]
8 |  |  | > 0.5 | > 0.5 | Cc1ccc2[nH]nc(N)c2c1-c1ccc2c(N3CC4CCC(C3)N4)nc(OC[C@@]34CCCN3C[C@H](F)C4)nc2c1F [Compound 703, 4-(4-(3,8-diazabicyclo-[3.2.1]octan-3-yl)-8-fluoro-2-(((2R,7aS)-2-fluorotetra-hydro-1H-pyrrolizin-7a(5H)-yl)methoxy)quinazolin-7-yl)-5-methyl-1H-indazol-3-amine]
